Target: T1, S. pneumoniae SpxB (pyruvate oxidase) (Streptococcus pneumoniae, UniProt A0A0H2ZP58)
T1 construct: recombinant from E. coli Rosetta BL21(DE3)/pLysS, pHis-parallel vector, His tag apparently kept
Assay: H2O2 generation, peroxidase-coupled quinoneimine dye at […] nm
Type: biochemical
Conditions: 0.2 mM pyruvate, 50 mM KH2PO4 pH 6, 0.2 mM FAD, 0.2 mM TPP, 0.5 to 2 mM Mg(II) or Mn(II), 37 °C

T1 sequence (A0A0H2ZP58 entry or part of it): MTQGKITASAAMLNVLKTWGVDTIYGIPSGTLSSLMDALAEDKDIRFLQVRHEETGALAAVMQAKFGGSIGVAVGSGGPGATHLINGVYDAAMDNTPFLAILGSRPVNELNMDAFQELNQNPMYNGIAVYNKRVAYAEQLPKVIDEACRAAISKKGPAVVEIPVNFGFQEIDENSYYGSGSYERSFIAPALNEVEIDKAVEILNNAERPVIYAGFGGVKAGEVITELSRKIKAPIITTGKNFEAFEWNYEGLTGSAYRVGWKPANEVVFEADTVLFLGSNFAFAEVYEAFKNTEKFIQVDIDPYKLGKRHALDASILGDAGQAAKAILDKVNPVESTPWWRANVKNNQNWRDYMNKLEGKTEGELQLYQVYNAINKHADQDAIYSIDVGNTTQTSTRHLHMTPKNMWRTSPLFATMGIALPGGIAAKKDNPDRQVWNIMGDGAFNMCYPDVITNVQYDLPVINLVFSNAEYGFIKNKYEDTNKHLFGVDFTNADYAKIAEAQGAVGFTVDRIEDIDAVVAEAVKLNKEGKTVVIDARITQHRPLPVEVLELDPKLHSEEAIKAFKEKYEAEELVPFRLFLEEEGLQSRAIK

CC(=O)C(=O)O [sodium pyruvate]
H2O2 generation, peroxidase-coupled quinoneimine dye at 550 nm: Quinoneimine dye formation was monitored in triplicate with the addition of sodium pyruvate
